Assay results from US20060142384A1, “2-Oxyamino-1-cyclopentene-1-nitriles as material protective agents” (priority 2002, published 2006).

Key:
Assay type in all cases: cell-based
Bacillus subtilis = assay: MIC on Landy agar against bacteria; conditions: 72 h, 3 days at 28° C., 60-70% relative atmospheric humidity, read-out: Minimum inhibitory concentrations Bacillus subtilis
Procedure: (§1) A defined Landy Agar was admixed with the active compounds according to the invention in concentrations of […]. The MIC was determined after 3 days of storage at 28° C. and 60-70% relative atmospheric humidity.

Pseudomonas aeroginosa = assay: MIC on Landy agar against bacteria; conditions: 72 h, 3 days at 28° C., 60-70% relative atmospheric humidity, read-out: Minimum inhibitory concentrations Pseudomonas aeroginosa
Procedure: as §1

Penicillium brevicaule = assay: MIC on malt extract agar against fungi; conditions: 336 h, 2 weeks at 28° C., 60 to 70% relative atmospheric humidity, read-out: Minimum inhibitory concentrations Penicillium brevicaule
Procedure: (§2) The MIC was determined after 2 weeks of storage at 28° C. and 60 to 70% relative atmospheric humidity.

Chaetomium globosum = assay: MIC on malt extract agar against fungi; conditions: 336 h, 2 weeks at 28° C., 60 to 70% relative atmospheric humidity, read-out: Minimum inhibitory concentrations Chaetomium globosum
Procedure: as §2

Row | MIC (Bacillus subtilis) [µg/mL] | MIC (Pseudomonas aeroginosa) [µg/mL] | MIC (Penicillium brevicaule) [µg/mL] | MIC (Chaetomium globosum) [µg/mL] | Structure (SMILES)
1 | < 400 | < 400 |  |  | N#CC1=C(NO)CCC1 [Example 1, 2-(Hydroxyamino)-1-cyclopentene-1-carbonitrile]
2 | < 400 | < 400 | < 400 | < 400 | CC(C)C(=O)ON(C(=O)C(C)C)C1=C(C#N)CCC1 [Example 4, N-(2-Cyano-1-cyclopenten-1-yl)-N-(isobutyryloxy)-2-methylpropanamide]
3 |  |  | < 400 | < 400 | N#CC1=C(NOCc2ccccc2)CCC1 [Example 3, 2-[(Benzyloxy)amino]-1-cyclopentene-1-carbonitrile]
4 |  |  | < 400 | < 400 | N#CC1=C(NOCc2ccc(Cl)cc2)CCC1 [Example 14]
5 |  |  | < 400 | < 400 | Cc1ccc(CONC2=C(C#N)CCC2)cc1 [Example 12]
